From patent publication US20260216170A1, “TETRAHYDROISOQUINOLINE HETEROBIFUNCTIONAL BCL-XL DEGRADERS” (Treeline Biosciences, Inc., priority 2023, published 2026)

Biological target: T1, Human BCL-XL protein (N-terminal HiBiT tagged BCL-XL expressed in HT1080 cells) (Homo sapiens, UniProt Q07817)
T1 construct: expressed in transfected cells; host or cells: HT-1080 (ATCC CCL-121), stably transduced with lentivirus pLV-UBC-N-HiBiT-BCL-XL-PGK-puro and selected with puromycin
Assay: HiBiT Based Degradation Assay
Assay type: cell-based
Conditions: 24 hours incubation; for DC50: BCL-XL degradation, HT1080 cells expressing N-HiBiT-BCL-XL, normalized with DMSO control, geometric mean for multiple data points, read-out: EC50 (24 h); for Ymin (24 h): bottom of BCL-XL degradation curve (remaining HiBiT-BCL-XL signal vs DMSO control), HT1080 cells
Outline: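 BCL-XL degradation was read as Nano-Glo HiBiT lytic luminescence relative to DMSO after a 24 h compound treatment of HT1080 cells carrying stably integrated N-HiBiT-BCL-XL. EC50 values come from four-parameter logistic curves, with the hook-curve minimum fixed as bottom, and are geometric means where tested repeatedly.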

T1 sequence (Q07817 whole entry): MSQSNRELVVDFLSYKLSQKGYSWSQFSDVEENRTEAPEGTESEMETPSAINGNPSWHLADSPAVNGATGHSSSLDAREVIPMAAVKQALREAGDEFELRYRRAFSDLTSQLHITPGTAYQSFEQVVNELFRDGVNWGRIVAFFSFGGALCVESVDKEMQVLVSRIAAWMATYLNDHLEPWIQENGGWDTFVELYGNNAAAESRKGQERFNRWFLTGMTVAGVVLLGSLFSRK

Row | DC50 [nM] | Ymin (24 h) | SMILES
1 | < 10 | A (Ymin < 30%) | COc1c(NC(=O)CN2CCC3(CC2)CC(Oc2ccc(-c4ccc(N5CCc6ccnc(C(=O)Nc7nc8ccccc8s7)c6C5)nc4C(=O)O)c(C)c2)C3)ccc2c(C3CCC(=O)NC3=O)nn(C)c12 (stereo not drawn) [Compound 187, 6-[8-(1,3-benzothiazol-2-ylcarbamoyl)-3,4-dihydro-1H-2,7-naphthyridin-2-yl]-3-[4-[[7-[2-[[3-(2,6-dioxo-3-piperidyl)-7-methoxy-1-methyl-indazol-6-yl]amino]-2-oxo-ethyl]-7-azaspiro[3.5]nonan-2-yl]oxy]-2-methyl-phenyl]pyridine-2-carboxylic acid]
2 | 10 to 100 | A (Ymin < 30%) | COc1c(NC(=O)CN2CCC(CC[C@@H](C)Oc3ccc(-c4ccc(N5CCc6cccc(C(=O)Nc7nc8ccccc8s7)c6C5)nc4C(=O)O)c(C)c3)CC2)ccc2c(C3CCC(=O)NC3=O)nn(C)c12 (single isomer, unassigned) [Compound 223b]
3 | 10 to 100 | A (Ymin < 30%) | Cc1cc(OCCC[C@@H]2CCN(CC(=O)Nc3ccc4c(C5CCC(=O)NC5=O)nn(C)c4c3)[C@@H](C)C2)ccc1-c1ccc(N2CCc3cccc(C(=O)Nc4nc5ccccc5s4)c3C2)nc1C(=O)O (stereo partly drawn) [Compound 210a]
4 | < 10 | A (Ymin < 30%) | Cc1cc(OC2CC3(CCN(CC(=O)Nc4ccc5c(C6CCC(=O)NC6=O)nn(C)c5c4F)CC3)C2)ccc1-c1ccc(N2CCc3ccnc(C(=O)Nc4nc5ccccc5s4)c3C2)nc1C(=O)O (stereo not drawn) [Compound 205]
5 | 10 to 100 | B (30% ≤ Ymin < 50%) | Cc1cc(OCCC2CC3(CCN(CC(=O)Nc4ccc5c(C6CCC(=O)NC6=O)nn(C)c5c4)CC3)C2)ccc1-c1ccc(N2CCc3cccc(C(=O)Nc4nc5ccccc5s4)c3C2)nc1C(=O)O (stereo not drawn) [Compound 115, 6-(8-(benzo[d]thiazol-2-ylcarbamoyl)-3,4-dihydroisoquinolin-2(1H)-yl)-3-(4-(2-(7-(2-((3-(2,6-dioxopiperidin-3-yl)-1-methyl-1H-indazol-6-yl)amino)-2-oxoethyl)-7-azaspiro[3.5]nonan-2-yl)ethoxy)-2-methylphenyl)picolinic acid]
6 | 10 to 100 | B (30% ≤ Ymin < 50%) | Cc1c(OCC2CC3(CCN(CC(=O)Nc4ccc5c(C6CCC(=O)NC6=O)nn(C)c5c4C)CC3)C2)cccc1-c1ccc(N2CCc3cccc(C(=O)Nc4nc5ccccc5s4)c3C2)nc1C(=O)O (stereo not drawn) [Compound 117]
7 | 10 to 100 | B (30% ≤ Ymin < 50%) | COc1c(NC(=O)CN2CCC(CCCOc3ccc(-c4ccc(N5CCc6ccnc(C(=O)Nc7nc8ccccc8s7)c6C5)nc4C(=O)O)c(C(F)(F)F)c3)CC2)ccc2c(C3CCC(=O)NC3=O)nn(C)c12 (stereo not drawn) [Compound 158, 6-[8-(1,3-benzothiazol-2-ylcarbamoyl)-3,4-dihydro-1H-2,7-naphthyridin-2-yl]-3-[4-[3-[1-[2-[[3-(2,6-dioxo-3-piperidyl)-7-methoxy-1-methyl-indazol-6-yl]amino]-2-oxo-ethyl]-4-piperidyl]propoxy]-2-(trifluoromethyl)phenyl]pyridine-2-carboxylic acid]
8 | < 10 | B (30% ≤ Ymin < 50%) | C[C@@H]1C[C@@H](CCCOc2ccc(-c3ccc(N4CCc5cccc(C(=O)Nc6nc7ccccc7s6)c5C4)nc3C(=O)O)c(C(F)(F)F)c2)CCN1CC(=O)Nc1ccc2c(C3CCC(=O)NC3=O)nn(C)c2c1 (stereo partly drawn) [Compound 209d]
9 | 10 to 100 | A (Ymin < 30%) | COc1c(NC(=O)CN2CCC(CCCOc3ccc(-c4ccc(N5CCc6cccc(C(=O)Nc7nc8ccccc8s7)c6C5)nc4C(=O)O)c(C(F)(F)F)c3)CC2)ccc2c(C3CCC(=O)NC3=O)nn(C)c12 (stereo not drawn) [Compound 142]
10 | < 10 | B (30% ≤ Ymin < 50%) | Cn1nc(C2CCC(=O)NC2=O)c2ccc(NC(=O)CN3CCC4(CC3)CC(Oc3cccc(-c5ccc(N6CCc7cccc(C(=O)Nc8nc9ccccc9s8)c7C6)nc5C(=O)O)c3C(F)(F)F)C4)cc21 (stereo not drawn) [Compound 169, 6-(8-(benzo[d]thiazol-2-ylcarbamoyl)-3,4-dihydroisoquinolin-2(1H)-yl)-3-(3-((7-(2-((3-(2,6-dioxopiperidin-3-yl)-1-methyl-1H-indazol-6-yl)amino)-2-oxoethyl)-7-azaspiro[3.5]nonan-2-yl)oxy)-2-(trifluoromethyl)phenyl)picolinic acid]
11 | 10 to 100 | B (30% ≤ Ymin < 50%) | Cn1nc(C2CCC(=O)NC2=O)c2ccc(NC(=O)CN3CCC4(CC3)CC(COc3cccc(-c5ccc(N6CCc7cccc(C(=O)Nc8nc9ccccc9s8)c7C6)nc5C(=O)O)c3C(F)(F)F)C4)nc21 (stereo not drawn) [Compound 147]
12 | 10 to 100 | B (30% ≤ Ymin < 50%) | Cc1cc(O[C@@H](C)CCC2CCN(CC(=O)Nc3ccc4c(C5CCC(=O)NC5=O)nn(C)c4c3F)CC2)ccc1-c1ccc(N2CCc3cccc(C(=O)Nc4nc5ccccc5s4)c3C2)nc1C(=O)O (single isomer, unassigned) [Compound 224a]
13 | < 10 | B (30% ≤ Ymin < 50%) | Cn1nc(C2CCC(=O)NC2=O)c2ccc(NC(=O)CN3CCC4(CCC(Oc5ccc(-c6ccc(N7CCc8cccc(C(=O)Nc9nc%10ccccc%10s9)c8C7)nc6C(=O)O)c(C(F)(F)F)c5)CC4)CC3)cc21 (stereo not drawn) [Compound 197]
14 | < 10 | B (30% ≤ Ymin < 50%) | Cn1nc(C2CCC(=O)NC2=O)c2ccc(NC(=O)CN3CCC4(CCC(Oc5cccc(-c6ccc(N7CCc8cccc(C(=O)Nc9nc%10ccccc%10s9)c8C7)nc6C(=O)O)c5C(F)(F)F)CC4)CC3)cc21 (stereo not drawn) [Compound 196]
15 | 10 to 100 | B (30% ≤ Ymin < 50%) | C[C@H]1C[C@@H](CCCOc2cccc(-c3ccc(N4CCc5cccc(C(=O)Nc6nc7ccccc7s6)c5C4)nc3C(=O)O)c2C(F)(F)F)CCN1CC(=O)Nc1ccc2c(C3CCC(=O)NC3=O)nn(C)c2c1 (stereo partly drawn) [Compound 215b]
16 | 10 to 100 | C (50% ≤ Ymin < 70%) | Cc1c(OCCCC2CCN(CC(=O)Nc3ccc4c(C5CCC(=O)NC5=O)nn(C)c4n3)CC2)cccc1-c1ccc(N2CCc3cccc(C(=O)Nc4nc5ccccc5s4)c3C2)nc1C(=O)O (stereo not drawn) [Compound 101]
17 | < 10 | B (30% ≤ Ymin < 50%) | Cn1nc(C2CCC(=O)NC2=O)c2ccc(NC(=O)CN3CCC4(CC3)CC(Oc3cccc(-c5ccc(N6CCc7ccnc(C(=O)Nc8nc9ccccc9s8)c7C6)nc5C(=O)O)c3C(F)(F)F)C4)cc21 (stereo not drawn) [Compound 154, 6-[8-(1,3-benzothiazol-2-ylcarbamoyl)-3,4-dihydro-1H-2,7-naphthyridin-2-yl]-3-[3-[[7-[2-[[3-(2,6-dioxo-3-piperidyl)-1-methyl-indazol-6-yl]amino]-2-oxo-ethyl]-7-azaspiro[3.5]nonan-2-yl]oxy]-2-(trifluoromethyl)phenyl]pyridine-2-carboxylic acid]
18 | < 10 | A (Ymin < 30%) | Cc1cc(OCCCC2(O)CCN(CC(=O)Nc3ccc4c(C5CCC(=O)NC5=O)nn(C)c4c3)CC2)ccc1-c1ccc(N2CCc3cccc(C(=O)Nc4nc5ccccc5s4)c3C2)nc1C(=O)O (stereo not drawn) [Compound 107, 6-(8-(benzo[d]thiazol-2-ylcarbamoyl)-3,4-dihydroisoquinolin-2(1H)-yl)-3-(4-(3-(1-(2-((3-(2,6-dioxopiperidin-3-yl)-1-methyl-1H-indazol-6-yl)amino)-2-oxoethyl)-4-hydroxypiperidin-4-yl)propoxy)-2-methylphenyl)picolinic acid]
19 | < 10 | A (Ymin < 30%) | Cc1cc(OC[C@@H]2C[C@H]2CC2CCN(CC(=O)Nc3ccc4c(C5CCC(=O)NC5=O)nn(C)c4c3)CC2)ccc1-c1ccc(N2CCc3cccc(C(=O)Nc4nc5ccccc5s4)c3C2)nc1C(=O)O (single isomer, unassigned) [Compound 1002c]
20 | 10 to 100 | B (30% ≤ Ymin < 50%) | Cn1nc(C2CCC(=O)NC2=O)c2ccc(NC(=O)CN3CCC4(CC3)CC(COc3ccc(-c5ccc(N6CCc7cccc(C(=O)Nc8nc9ccccc9s8)c7C6)nc5C(=O)O)c(C(F)(F)F)c3)C4)nc21 (stereo not drawn) [Compound 148]
21 | 10 to 100 | B (30% ≤ Ymin < 50%) | COc1c(NC(=O)CN2CCC3(CC2)CC(COc2cccc(-c4ccc(N5CCc6cccc(C(=O)Nc7nc8ccccc8s7)c6C5)nc4C(=O)O)c2C(F)(F)F)C3)ccc2c(C3CCC(=O)NC3=O)nn(C)c12 (stereo not drawn) [Compound 143, 6-(8-(benzo[d]thiazol-2-ylcarbamoyl)-3,4-dihydroisoquinolin-2(1H)-yl)-3-(3-((7-(2-((3-(2,6-dioxopiperidin-3-yl)-7-methoxy-1-methyl-1H-indazol-6-yl)amino)-2-oxoethyl)-7-azaspiro[3.5]nonan-2-yl)methoxy)-2-(trifluoromethyl)phenyl)picolinic acid]
22 | < 10 | B (30% ≤ Ymin < 50%) | Cc1cc(OC[C@@H]2C[C@H]2C2CCN(CC(=O)Nc3ccc4c(C5CCC(=O)NC5=O)nn(C)c4c3)CC2)ccc1-c1ccc(N2CCc3cccc(C(=O)Nc4nc5ccccc5s4)c3C2)nc1C(=O)O (single isomer, unassigned) [Compound 1003b]

Row | SMILES | DC50 [nM] | Ymin (24 h)
23 | Cc1c(OCC[C@@H]2C[C@H]3CC[C@@H](C2)N3CC(=O)Nc2ccc3c(C4CCC(=O)NC4=O)nn(C)c3c2)cccc1-c1ccc(N2CCc3cccc(C(=O)Nc4nc5ccccc5s4)c3C2)nc1C(=O)O (stereo partly drawn) [Compound 174a] | < 10 | A (Ymin < 30%)
24 | Cc1c(OCCC[C@@H]2C[C@H]3CC[C@@H](C2)N3CC(=O)Nc2ccc3c(C4CCC(=O)NC4=O)nn(C)c3c2)cccc1-c1ccc(N2CCc3cccc(C(=O)Nc4nc5ccccc5s4)c3C2)nc1C(=O)O (stereo partly drawn) [Compound 175a] | < 10 | B (30% ≤ Ymin < 50%)
